Measurements published in patent US20230279001A1, “IMIDAZO[1,2-A]PYRIDINE COMPOUNDS FOR THE TREATMENT OF AUTOIMMUNE DISEASE” (Hoffmann-La Roche Inc., priority 2020, published 2023).
Values after ≈ are worked out from the molar mass of the structure shown. Read-outs that look alike come from different tables or passages of the source.

What was measured:
[1] = Single dose pharmacokinetics (PK) study in male Wister-Han rats; format: in vivo, rat
Method: Pharmacokinetic properties of selected compounds were assessed by single dose PK studies in Male Wister-Han Rats (vendor: Beijing Vital River Laboratory Animal Technology Co., Ltd). Briefly, two groups of animals were administered a single dose of respective compound intravenously (IV, bolus) at 2 mg/kg or orally (PO, by gavage) at 10 mg/kg. Blood samples (approximately 150 μL) were collected via Jugular vein at 5 min (only for IV), 15 min, 30 min, 1 h, 2 h, 4 h, 7 h and 24 h post-dose. Blood samples were placed into tubes containing EDTA-K2 anticoagulant and centrifuged at 3000 rpm for 15 min at 4° C. to separate plasma from the samples. After centrifugation, the resulting plasma was transferred to clean tubes for bioanalysis with LC/MS/MS. The pharmacokinetic parameters were calculated using non-compartmental analysis. The volume of distribution (VSS), half-life (T1/2) and clearance (CL) were obtained based on the plasma concentration-time curve after IV dose. The peak concentration (Cmax) was recorded directly from experimental observations after PO dose. The area under the plasma concentration-time curve (AUC0-last) was calculated using the linear trapezoidal rule up to the last detectable concentration. The bioavailability (F) was calculated based on the dose normalized AUC0-last after IV and PO dose.
The VSS of a drug represents the degree to which a drug is distributed in body tissue rather than the plasma. VSS is directly proportional with the amount of drug distributed into tissue. A higher VSS indicates a greater amount of tissue distribution.

[2] = tested on: Balb/c 3T3 mouse fibroblasts; assay: 3T3 in vitro phototoxicity assay (Neutral Red uptake); format: cell-based; settings: 3T3 fibroblasts
Text: Phototoxicity is defined as a toxic response that is elicited after the first exposure of the skin to certain chemicals and subsequent exposure to light, or that is induced similarly by skin irradiation after systemic administration of a chemical substance. The assay used in this study is designed to detect the phototoxic potential of a chemical by using a simple in vitro cytotoxicity assay with Balb/c 3T3 mouse fibroblasts. The principle of this test is a comparison of the cytotoxicity of a chemical when tested with and without exposure to a non-toxic dose of UVA-light. Cytotoxicity is expressed as a dose dependent reduction of the growth rate of cells as determined by uptake of the vital dye Neutral Red one day after treatment. […]
For this study the Neutral Red uptake (NRU) assay of Borenfreund and Puerner (Borenfreund, E, Puerner J A. Toxicity determined in vitro by morphological alterations and Neutral Red absorption. Toxicology Lett. 1985; 24:119-124) modified according to INVITTOX protocol No 78 (ERGATT/FRAME data bank of in vitro techniques in toxicology. INVITTOX PROTOCOL No 78. 3T3 NRU Phototoxicity Assay. March 1994) has been adapted to examine a possible phototoxic potential of the test item. […]
For each test item the microtiter plates were prepared according to Table 6. […] UV flux was measured with a UV-meter (Dr. Gröbel RM21). […]

Compound | F ([1]; dose normalized AUC0-last after IV 2 mg/kg and PO 10 mg/kg) | AUC(0-t) ([1]; rat, IV 2 mg/kg, plasma, read-out: IV AUC0-last) | Cmax ([1]; rat, PO 10 mg/kg, plasma) | AUC(0-t) ([1]; rat, PO 10 mg/kg, plasma, read-out: PO AUC0-last) | clearance ([1]; rat, plasma, IV 2 mg/kg) | half-life ([1]; rat, plasma, IV 2 mg/kg) | Vd ([1]; rat, plasma, IV 2 mg/kg, read-out: Vss) | Phototoxicity factor ([2]; Factor=IC50(−UV)/IC50(+UV)) | IC50 ([2]; Mus musculus, BALB/c3T3, light or radiation study, approx. 5 J/cm^2 UVA light, Neutral Red uptake)
Cc1cc(-c2ccc(N3CCC(N4CCNCC4)CC3)nc2C(F)F)cn2ccnc12 [Example 10, 6-[2-(difluoromethyl)-6-(4-piperazin-1-yl-1-piperidyl)-3-pyridyl]-8-methyl-imidazo[1,2-a]pyridine] | 69% | 1060 ng·h/mL | 257 ng/mL | 3640 ng·h/mL | 28 mL/min/kg | 8.6 h | 15 L/kg |  | 
CCc1nc(N2CCC(N3CC4(CNCCO4)C3)CC2)ccc1-c1cc(C)c2nccn2c1 [Example 14, 2-[1-[6-ethyl-5-(8-methylimidazo[1,2-a]pyridin-6-yl)-2-pyridyl]-4-piperidyl]-5-oxa-2,8-diazaspiro[3.5]nonane] |  |  |  |  |  |  |  | 1 | 100 µg/mL (≈ 224 µM)
